According to ChEMBL document CHEMBL5104217, “Identification of a Target Site for Covalent Inhibition of Protein Phosphohistidine Phosphatase 1” (ACS Med Chem Lett, 2022):
Calls of active or inactive are those of the source. The rule behind the calls is not given here.

Legend:
[1] = biological target: T1, 14 kDa phosphohistidine phosphatase (Homo sapiens, UniProt Q9NRX4); experiment: Inhibition of human PHPT1 expressed in Escherichia coli BL21 (DE3) using pNPP as substrate incubated for 1 hr by multimode microplate reader analysis
T1 sequence (Q9NRX4 whole entry): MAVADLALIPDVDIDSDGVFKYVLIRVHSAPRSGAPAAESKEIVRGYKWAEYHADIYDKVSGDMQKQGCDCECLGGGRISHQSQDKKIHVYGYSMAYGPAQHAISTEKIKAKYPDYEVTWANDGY

[2] = species: Homo sapiens; experiment: Covalent binding affinity to human PHPT1 C71A mutant expressed in Escherichia coli BL21 (DE3) assessed as covalent adduct formation at 10 equiv incubated for 1 hr by RP-HPLC based ESI-MS analysis
[3] = biological target: T2, 14 kDa phosphohistidine phosphatase (Homo sapiens) (UniProt Q9NRX4); experiment: Inhibition of human PHPT1 expressed in Escherichia coli BL21 (DE3) using pNPP as substrate assessed as Kinact by reciprocal analysis
T2 sequence (whole entry): T1 sequence (Q9NRX4 whole entry)

[4] = biological target: T2, 14 kDa phosphohistidine phosphatase (Homo sapiens); experiment: Covalent inhibition of human PHPT1 expressed in Escherichia coli BL21 (DE3) assessed as increase in protein mass at 10 equiv incubated for 1 hr by RP-HPLC based ESI-MS analysis
[5] = biological target: T2, 14 kDa phosphohistidine phosphatase (Homo sapiens); experiment: Covalent inhibition of human PHPT1 expressed in Escherichia coli BL21 (DE3) assessed as inhibition of dephosphorylation of histidine-phosphorylated BSA at 10 equiv preincubated for 1 hr followed by substrate addition and measured for 150 secs by Western blot analysis; conditions: time 3750.0 sec
[6] = biological target: T1, 14 kDa phosphohistidine phosphatase; experiment: Inhibition of human PHPT1 expressed in Escherichia coli BL21 (DE3) using pNPP as substrate assessed as inhibition constant by reciprocal analysis
[7] = biological target: T2, 14 kDa phosphohistidine phosphatase (Homo sapiens); experiment: Covalent inhibition of human PHPT1 expressed in Escherichia coli BL21 (DE3) using pNPP as substrate at 10 equiv preincubated for 60 mins by multimode microplate reader analysis
[8] = species: Homo sapiens; experiment: Covalent binding affinity to human PHPT1 C69A mutant expressed in Escherichia coli BL21 (DE3) assessed as covalent adduct formation at 10 equiv incubated for 1 hr by RP-HPLC based ESI-MS analysis
[9] = biological target: T2, 14 kDa phosphohistidine phosphatase (Homo sapiens); experiment: Inhibition of human PHPT1 expressed in Escherichia coli BL21 (DE3) using pNPP as substrate assessed as Kinact/Ki by reciprocal analysis

IC50 [1] [µM] | Activity [2] | Kinact [3] [s⁻¹] | inhibition [4] | inhibition [5] | Ki [6] [µM] | inhibition [7] | Activity [8] | Ratio [9] [M⁻¹ s⁻¹] | SMILES
18.3 | Active | 0.00267 | Active | Active | 183 | Active | Active | 14.6 | C=C(CC)C(=O)c1ccc(OCC(=O)O)c(Cl)c1Cl [ETHACRYNIC ACID]
– | – | 0.0075 | – | – | 209 | – | – | 31 | CCN1C(=O)C=CC1=O [N-ETHYLMALEIMIDE]
